Data: patent US11345699B2, “Apoptosis signal-regulating kinase 1 inhibitors and methods of use thereof” (Enanta Pharmaceuticals, Inc., priority 2018, dated 2022)
pIC50: −log10 of the molar value.

molecular target: ASK1 (Homo sapiens (Human), UniProt Q99683); test: HTRF KinEASE Assay (TR-FRET), inhibition of ASK1; format: biochemical; details: ASK1 kinase, 100 μM ATP, 1 μM STK3 peptide substrate, compound 0 to 10 μM
Description: Assay HTRF® KinEASE™ Assay
ASK1 was purchased from Thermofisher (Catalogue #PV4011), ATP was purchased from Sigma (Catalogue #A7699), HTRF® KinEASE™ Assay System was obtained from Cisbio (Bedford, Mass.). ½ Area plate was purchased from Perkin Elmer (Catalogue ##6005560). HTRF® KinEASE™-STK is a generic method for measuring serine/threonine kinase activities using a time-resolved fluorescence resonance energy transfer (TR-FRET) immunoassay. The IC50 value for each compound was determined in the presence of compound (various concentration from 0 to 10 μM) and a fixed amount of ATP and peptide substrates. The test compound, 1 μM STK3 peptide substrate, and […] of ASK1 kinase are incubated with kinase reaction buffer containing 50 mM HEPES Ph 7.5, 0.01% BRIJ-35, 10 mM MgCl2, and 1 mM EGTA for 30 minutes. 100 μM ATP is added to start kinase reaction and incubated for 3 hours. The STK3-antibody labeled with Eu^3+-Cryptate and 125 nM streptavidin-XL665 are mixed in a single addition with stop reagents provided by the Cisbio kit used to stop the kinase reaction. Fluorescence is detected using an Envision Multilabeled 2014 reader from PerkinElmer. The Fluorescence is measured at 615 nm (Cryptate) and 665 nm (XL665) and a ratio of 665 nm/615 nm is calculated for each well. The resulting TR-FRET is proportional to the phosphorylation level. Staurosporine was used as the positive control. IC50 was determined by Xlfit 5.3.
By using above method, the inhibition of ASK1 was evaluated for the compounds of Formula (I). Example numbers correspond to those in Table 5.

Chain of ASK1 (Q99683 whole entry): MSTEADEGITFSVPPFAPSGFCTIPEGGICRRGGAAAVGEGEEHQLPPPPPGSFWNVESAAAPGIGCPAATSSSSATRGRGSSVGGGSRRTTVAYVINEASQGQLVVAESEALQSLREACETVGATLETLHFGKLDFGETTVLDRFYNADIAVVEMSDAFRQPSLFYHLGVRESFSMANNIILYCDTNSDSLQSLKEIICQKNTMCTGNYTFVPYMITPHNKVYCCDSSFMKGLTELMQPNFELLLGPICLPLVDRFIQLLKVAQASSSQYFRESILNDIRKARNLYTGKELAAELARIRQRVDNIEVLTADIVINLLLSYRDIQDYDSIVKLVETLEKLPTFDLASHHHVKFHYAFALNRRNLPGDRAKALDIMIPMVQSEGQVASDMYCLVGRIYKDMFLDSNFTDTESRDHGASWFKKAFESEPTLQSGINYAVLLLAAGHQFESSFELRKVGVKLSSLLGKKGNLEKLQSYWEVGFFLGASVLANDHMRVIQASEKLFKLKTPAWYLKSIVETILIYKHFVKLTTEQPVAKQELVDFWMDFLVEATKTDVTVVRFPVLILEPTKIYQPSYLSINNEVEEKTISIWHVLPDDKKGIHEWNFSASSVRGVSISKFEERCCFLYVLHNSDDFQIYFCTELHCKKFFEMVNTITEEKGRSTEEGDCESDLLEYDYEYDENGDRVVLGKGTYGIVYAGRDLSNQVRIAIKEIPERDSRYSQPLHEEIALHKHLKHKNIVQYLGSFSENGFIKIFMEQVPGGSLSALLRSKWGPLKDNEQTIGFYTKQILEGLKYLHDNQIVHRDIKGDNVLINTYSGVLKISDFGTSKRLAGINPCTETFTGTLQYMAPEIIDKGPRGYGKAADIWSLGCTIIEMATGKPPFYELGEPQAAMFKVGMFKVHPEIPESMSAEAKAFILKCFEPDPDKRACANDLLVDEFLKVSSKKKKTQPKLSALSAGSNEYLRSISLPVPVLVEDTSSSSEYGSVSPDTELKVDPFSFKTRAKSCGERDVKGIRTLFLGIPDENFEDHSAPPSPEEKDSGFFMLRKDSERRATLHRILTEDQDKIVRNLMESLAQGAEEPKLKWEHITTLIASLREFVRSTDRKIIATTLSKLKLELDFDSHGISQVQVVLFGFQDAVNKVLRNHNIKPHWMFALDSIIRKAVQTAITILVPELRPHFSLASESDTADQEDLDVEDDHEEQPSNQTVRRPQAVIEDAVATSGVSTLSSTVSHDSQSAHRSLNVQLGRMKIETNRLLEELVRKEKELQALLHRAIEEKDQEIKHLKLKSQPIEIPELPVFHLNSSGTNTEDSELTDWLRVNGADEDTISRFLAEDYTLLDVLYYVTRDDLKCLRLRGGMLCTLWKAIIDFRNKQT

Row | SMILES | pIC50
1 | COc1cc2c(cc1C(=O)Nc1cccc(-c3nnnn3[C@H](C)CO)n1)CN(C(=O)[C@@H]1CCOC1)CC2 [Example 142] | > 8.90
2 | COc1cc2c(cc1C(=O)Nc1cccc(-c3nncn3C(C)C)n1)CN(C(=O)C(C)(C)CO)CC2 [Example 126, 2-(3-hydroxy-2,2-dimethylpropanoyl)-N-(6-(4-isopropyl-4H-1,2,4-triazol-3-yl)pyridin-2-yl)-6-methoxy-1,2,3,4-tetrahydroisoquinoline-7-carboxamide] | > 8.90
3 | COc1cc2c(cc1C(=O)Nc1cccc(-c3nnnn3[C@H](C)CO)n1)CN(C(=O)[C@](C)(O)C(F)(F)F)CC2 [Example 105] | > 8.90
4 | CCOC(=O)N1CCc2cc(F)c(C(=O)Nc3cccc(-c4nncn4[C@H](C)CF)n3)cc2C1 [Example 103] | 8.00 to 8.90
5 | COc1cc2c(cc1C(=O)Nc1cccc(-c3nnnn3[C@H](C)CO)n1)CN(C(=O)OC1CCOC1)CC2 (stereo partly shown) [Example 143] | 8.00 to 8.90
6 | CC(C)n1cnnc1-c1cccc(NC(=O)c2cc3c(cn2)CCN(S(=O)(=O)C2CC2)C3)n1 [Example 13, 6-(cyclopropylsulfonyl)-N-(6-(4-isopropyl-4H-1,2,4-triazol-3-yl)pyridin-2-yl)-5,6,7,8-tetrahydro-2,6-naphthyridine-3-carboxamide] | 8.00 to 8.90
7 | CCOC(=O)N1CCc2cnc(C(=O)Nc3cccc(-c4nnnn4[C@@H]4CCC[C@@H]4O)n3)cc2C1 [Example 146] | 7.00 to 8.00
8 | CCOC(=O)N1CCc2cc(OC)c(C(=O)Nc3cccc(-c4nncn4C(C)C)n3)cc2C1 [Example 17, ethyl 7-((6-(4-isopropyl-4H-1,2,4-triazol-3-yl)pyridin-2-yl)carbamoyl)-6-methoxy-3,4-dihydroisoquinoline-2(1H)-carboxylate] | 8.00 to 8.90
9 | CC(C)n1cnnc1-c1cccc(NC(=O)c2cc3c(cn2)CCN(S(=O)(=O)N(C)C)C3)n1 [Example 2, 6-(N,N-dimethylsulfamoyl)-N-(6-(4-isopropyl-4H-1,2,4-triazol-3-yl)pyridin-2-yl)-5,6,7,8-tetrahydro-2,6-naphthyridine-3-carboxamide] | 7.00 to 8.00
10 | CC(C)n1cnnc1-c1cccc(NC(=O)c2cc3c(cn2)CCN(C(=O)OCC(F)(F)F)C3)n1 [Example 25, 2,2,2-trifluoroethyl 7-((6-(4-isopropyl-4H-1,2,4-triazol-3-yl)pyridin-2-yl)carbamoyl)-3,4-dihydro-2,6-naphthyridine-2(1H)-carboxylate] | 8.00 to 8.90
11 | COc1cc2c(cc1C(=O)Nc1cccc(-c3nncn3C(C)C)n1)CN(c1cncnc1)CC2 [Example 151, N-(6-(4-isopropyl-4H-1,2,4-triazol-3-yl)pyridin-2-yl)-6-methoxy-2-(pyrimidin-5-yl)-1,2,3,4-tetrahydroisoquinoline-7-carboxamide] | > 8.90
12 | COCCOC(=O)N1CCc2cc(OC)c(C(=O)Nc3cccc(-c4nnnn4[C@H](C)CO)n3)cc2C1 [Example 96] | > 8.90
13 | COc1cc2c(cc1C(=O)Nc1cccc(-c3nnnn3[C@H](C)CO)n1)CN(C(=O)C1(O)CC1)CC2 [Example 114] | > 8.90
14 | C[C@H](CO)n1nnnc1-c1cccc(NC(=O)c2cc3c(cc2F)CCN(c2ccccn2)C3)n1 [Example 122] | 8.00 to 8.90

Results, then the compound that gave them:

Row | pIC50 | SMILES
15 | > 8.90 | COc1cc2c(cc1C(=O)Nc1cccc(-c3nnnn3[C@H](C)CO)n1)CN(C(=O)CN1CCOC1=O)CC2 [Example 149]
16 | 8.00 to 8.90 | C[C@H](CO)n1nnnc1-c1cccc(NC(=O)c2cc3c(cn2)CCN(c2ncccn2)C3)n1 [Example 108, (R)—N-(6-(1-(1-hydroxypropan-2-yl)-1H-tetrazol-5-yl)pyridin-2-yl)-6-(pyrimidin-2-yl)-5,6,7,8-tetrahydro-2,6-naphthyridine-3-carboxamide]
17 | 8.00 to 8.90 | COc1cc2c(cc1C(=O)Nc1cccc(-c3nnnn3[C@H](C)CO)n1)CN(c1c(N)c(=O)c1=O)CC2 [Example 98, (R)-2-(2-amino-3,4-dioxocyclobut-1-en-1-yl)-N-(6-(1-(1-hydroxypropan-2-yl)-1H-tetrazol-5-yl)pyridin-2-yl)-6-methoxy-1,2,3,4-tetrahydroisoquinoline-7-carboxamide]
18 | 7.00 to 8.00 | C[C@H](CO)n1nnnc1-c1cccc(NC(=O)c2cc3c(cc2F)CCN(S(=O)(=O)NC2CC2)C3)n1 [Example 117]
19 | 7.00 to 8.00 | C[C@H](CO)n1nnnc1-c1cccc(NC(=O)c2cc3c(cn2)CCN(C(=O)C(C)(C)CO)C3)n1 [Example 99]
20 | 7.00 to 8.00 | C[C@H](CO)n1nnnc1-c1cccc(NC(=O)c2cc3c(cc2F)CCN(C(=O)c2ccccn2)C3)n1 [Example 133]
21 | 8.00 to 8.90 | CC(C)n1cnnc1-c1cccc(NC(=O)c2cc3c(cc2F)CCN(C(=O)OCC(F)(F)F)C3)n1 [Example 21, 2,2,2-trifluoroethyl 6-fluoro-7-((6-(4-isopropyl-4H-1,2,4-triazol-3-yl)pyridin-2-yl)carbamoyl)-3,4-dihydroisoquinoline-2(1H)-carboxylate]
22 | 8.00 to 8.90 | CC(C)n1cnnc1-c1cccc(NC(=O)c2cc3c(cn2)CCN(C(=O)C(C)(C)C)C3)n1 [Example 1, N-(6-(4-isopropyl-4H-1,2,4-triazol-3-yl)pyridin-2-yl)-6-pivaloyl-5,6,7,8-tetrahydro-2,6-naphthyridine-3-carboxamide]
23 | > 8.90 | COCCC(=O)N1CCc2cc(OC)c(C(=O)Nc3cccc(-c4nnnn4[C@H](C)CO)n3)cc2C1 [Example 124]
24 | 8.00 to 8.90 | COc1cc2c(cc1C(=O)Nc1cccc(-c3nnnn3[C@H](C)CO)n1)CN(c1ncc(F)cn1)CC2 [Example 152, (R)-2-(5-fluoropyrimidin-2-yl)-N-(6-(1-(1-hydroxypropan-2-yl)-1H-tetrazol-5-yl)pyridin-2-yl)-6-methoxy-1,2,3,4-tetrahydroisoquinoline-7-carboxamide]
25 | > 8.90 | COc1cc2c(cc1C(=O)Nc1cccc(-c3nnnn3[C@H](C)CO)n1)CN(C(=O)C(C)(C)O)CC2 [Example 115]
26 | 8.00 to 8.90 | CCOC(=O)N1CCc2cc(F)c(C(=O)Nc3cccc(-c4nncn4[C@@H](C)CF)n3)cc2C1 [Example 107]
27 | 8.00 to 8.90 | COc1cc2c(cc1C(=O)Nc1cccc(-c3nnnn3[C@H](C)CO)n1)CN(c1ncns1)CC2 [Example 153]
28 | > 8.90 | COc1cc2c(cc1C(=O)Nc1cccc(-c3nncn3C(C)C)n1)CN(C(=O)C(C)(C)O)CC2 [Example 129]
29 | > 8.90 | COc1cc2c(cc1C(=O)Nc1cccc(-c3nnnn3[C@H](C)CO)n1)CN(S(=O)(=O)c1ccccn1)CC2 [Example 104]
30 | 8.00 to 8.90 | COc1cc2c(cc1C(=O)Nc1cccc(-c3nnnn3[C@H](C)CO)n1)CN(c1ncccn1)CC2 [Example 84, (R)-N-(6-(1-(1-hydroxypropan-2-yl)-1H-tetrazol-5-yl)pyridin-2-yl)-6-methoxy-2-(pyrimidin-2-yl)-1,2,3,4-tetrahydroisoquinoline-7-carboxamide]
31 | > 8.90 | COc1cc2c(cc1C(=O)Nc1cccc(-c3nnnn3[C@H](C)CO)n1)CN(C(=O)c1ccccn1)CC2 [Example 101]
32 | 8.00 to 8.90 | COc1cc2c(cc1C(=O)Nc1cccc(-c3nnnn3[C@H](C)CO)n1)CN(C(=O)c1cc3ccccc3cn1)CC2 [Example 102]
33 | 7.00 to 8.00 | CCOC(=O)N1CCc2cnc(C(=O)Nc3cccc(-c4nnnn4[C@H]4CCC[C@@H]4O)n3)cc2C1 [Example 145]
34 | > 8.90 | COc1cc2c(cc1C(=O)Nc1cccc(-c3nnnn3[C@H](C)CO)n1)CN(C(=O)[C@@H](O)CC(C)C)CC2 [Example 113]
